Test results as given in US10538555B2, “Macrocyclic inhibitors of the PD-1/PD-L1 and CD80(B7-1)/PD-L1 protein/protein interactions” (BRISTOL-MYERS SQUIBB COMPANY, priority 2014, dated 2020).
*1 amine or outer side, *2 acyl side, *3 side chain or, on linkers, in order; H or OH if unused. Where a SMILES comes first, the peptide text is derived from it. Bridges are numbered along the chain shown (N, C = ends). [ ]: non-standard residue; d: D form. ξ: configuration not given here. Trp(1-CH2COOH) = N[C@@H](Cc1cn(CC(=O)O)c2ccccc12)C(=O)O; Phe(3,4,5-F3) = N[C@@H](Cc1cc(F)c(F)c(F)c1)C(=O)O; Phe(4-F) = N[C@@H](Cc1ccc(F)cc1)C(=O)O; Phe(4-Me) = Cc1ccc(C[C@H](N)C(=O)O)cc1; d(cisHyp) = O=C(O)[C@H]1C[C@@H](O)CN1; Bta = N[C@@H](Cc1csc2ccccc12)C(=O)O; Hyp = O=C(O)[C@@H]1C[C@@H](O)CN1; NMeF = CN[C@@H](Cc1ccccc1)C(=O)O; X1 = O=C([C@H]1COCCN1[*:1])[*:2]; αMeF = C[C@](N)(Cc1ccccc1)C(=O)O; dHyp = O=C(O)[C@H]1C[C@H](O)CN1; NMeNle = CCCC[C@H](NC)C(=O)O; Pip = O=C(O)[C@@H]1CCCCN1; dPip = O=C(O)[C@H]1CCCCN1; hSer = N[C@@H](CCO)C(=O)O; NMeA = CN[C@@H](C)C(=O)O; dThz = O=C(O)[C@H]1CSCN1; Dab = NCC[C@H](N)C(=O)O; Dap = NC[C@H](N)C(=O)O; ξC = NC(CS)C(=O)O

The compounds below were run against T1, Human PD-L1/PD-1 (Homo sapiens, UniProt Q9NZQ7) (assay: HTRF Human PD-L1/PD-1 binding assay (PD-1-Ig/PD-L1-His)). Conditions: PD-L1-His 10 nM, PD-1-Ig 20 nM; class symbol; read-out: HTRF Human PD-L1/PD-1 Binding Assay IC50 Range.
T1 construct: TVMV protease cleavage site (C); made in house; host or cells: HEK293T cells
Method in brief: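 HTRF competition using HEK293T-expressed human PD-1(25-167)-Ig at 20 nM and PD-L1(18-239)-His at 10 nM, compound incubated first with PD-L1 for 15 min, then with PD-1 for 15 min. Signal read as 665/620 nm ratio 30 min after adding Eu anti-Ig and APC anti-His antibodies.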

T1 sequence (Q9NZQ7 with tags, fused parts or gaps): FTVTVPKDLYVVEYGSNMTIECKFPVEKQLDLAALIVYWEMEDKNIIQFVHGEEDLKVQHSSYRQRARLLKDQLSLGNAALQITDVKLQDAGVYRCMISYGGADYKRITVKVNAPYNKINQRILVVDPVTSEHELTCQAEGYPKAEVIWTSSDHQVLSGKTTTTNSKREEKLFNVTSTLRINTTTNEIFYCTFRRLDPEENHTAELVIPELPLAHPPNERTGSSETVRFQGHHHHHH

Row | IC50 | SMILES
1 | 1 to 9.9 nM | CCCC[C@H]1C(=O)N(C)[C@@H](CCCC)C(=O)N[C@@H](CN)C(=O)N[C@H](C(=O)NCC(N)=O)CSCC(=O)N[C@@H](Cc2ccc(O)cc2)C(=O)N2CCCC[C@H]2C(=O)N[C@@H](CC(N)=O)C(=O)N2CCC[C@H]2C(=O)N[C@@H](CN)C(=O)N[C@@H](CCC(=O)O)C(=O)N2C[C@H](O)C[C@H]2C(=O)N[C@@H](Cc2c[nH]c3ccccc23)C(=O)N[C@@H](CO)C(=O)N[C@@H](Cc2cn(CC(=O)O)c3ccccc23)C(=O)N1C [Example 1300] ({CH2CO}-Y[Pip]NP[Dap]E[Hyp]WS[Trp(1-CH2COOH)][NMeNle][NMeNle][Dap]CG-NH2; thioether N-14)
2 | 100 to 990 nM | CCCC[C@H]1C(=O)N(C)[C@@H](CCCC)C(=O)N[C@@H](CCC(=O)O)C(=O)N[C@H](C(=O)NCC(N)=O)CSCC(=O)N[C@@H](Cc2ccc(OC)cc2)C(=O)N(C)[C@@H](C)C(=O)N[C@@H](CCN)C(=O)N2CCC[C@H]2C(=O)N[C@@H](CN)C(=O)N[C@@H](CCC(=O)O)C(=O)N2C[C@H](O)C[C@H]2C(=O)N[C@@H](Cc2c[nH]c3ccccc23)C(=O)N[C@@H](CC(=O)O)C(=O)N[C@@H](Cc2c[nH]c3ccccc23)C(=O)N1C [Example 7114] ({CH2CO}-Y(Me)[NMeA][Dab]P[Dap]E[Hyp]WDW[NMeNle][NMeNle]ECG-NH2; thioether N-14)
3 | 10 to 99.9 nM | CCCC[C@H]1C(=O)N(C)[C@@H](CCCC)C(=O)N[C@@H](CCCNC(=N)N)C(=O)NC(C(=O)NCC(N)=O)CSCC(=O)N[C@@H](Cc2ccc(O)cc2)C(=O)N(C)[C@@H](C)C(=O)N[C@@H](CC(N)=O)C(=O)N2CCC[C@H]2C(=O)N[C@@H](CC(N)=O)C(=O)N[C@@H](CC(N)=O)C(=O)N2C[C@H](O)C[C@H]2C(=O)N[C@@H](Cc2c[nH]c3ccccc23)C(=O)N[C@@H](CO)C(=O)N[C@@H](Cc2csc3ccccc23)C(=O)N1C (stereo partly drawn) [Example 10012] ({CH2CO}-Y[NMeA]NPNN[Hyp]WS[Bta][NMeNle][NMeNle]R[ξC]G-NH2; thioether N-14)
4 | 1 to 9.9 nM | CCCC[C@H]1C(=O)N2C[C@H](O)C[C@@H]2C(=O)N[C@@H](CC(=O)O)C(=O)N[C@@H](C(C)C)C(=O)N(C)[C@@H](Cc2ccccc2)C(=O)N[C@@H](Cc2ccc(O)cc2)C(=O)N2CCOC[C@@H]2C(=O)N[C@@H](Cc2c[nH]c3ccccc23)C(=O)N[C@@H](Cc2ccc(O)cc2)C(=O)N[C@@H](CCOC)C(=O)N[C@H](C(=O)NCC(N)=O)CSCC(=O)N[C@@H](Cc2cc(F)c(F)c(F)c2)C(=O)N(C)[C@@H](Cc2ccccc2)C(=O)N1C [Example 10160] ({CH2CO}-[Phe(3,4,5-F3)][NMeF][NMeNle][d(cisHyp)]DV[NMeF]Y[X1]WY[hSer](Me)CG-NH2; thioether N-13)
5 | 10 to 99.9 nM | CCCC[C@H]1C(=O)N2C[C@H](O)C[C@@H]2C(=O)N[C@@H](CC(=O)O)C(=O)N[C@@H](C(C)C)C(=O)N(C)[C@@H](Cc2ccccc2)C(=O)N[C@@H](CCC(=O)O)C(=O)N2C[C@@H](O)C[C@@H]2C(=O)N[C@@H](Cc2c[nH]c3ccccc23)C(=O)N[C@@H](Cc2ccc(O)cc2)C(=O)N[C@@H](CC(C)C)C(=O)N[C@H](C(=O)NCC(N)=O)CSCC(=O)N[C@@H](Cc2cc(F)c(F)c(F)c2)C(=O)N(C)[C@@H](Cc2ccccc2)C(=O)N1C [Example 9373] ({CH2CO}-[Phe(3,4,5-F3)][NMeF][NMeNle][d(cisHyp)]DV[NMeF]E[dHyp]WYLCG-NH2; thioether N-13)
6 | 1 to 9.9 nM | CCCC[C@H]1C(=O)N2CCC[C@@H]2C(=O)N[C@@H](CC(=O)O)C(=O)N[C@@H](C(C)C)C(=O)N(C)[C@@H](Cc2ccccc2)C(=O)N[C@@H](Cc2ccc(O)cc2)C(=O)N2CCC[C@@H]2C(=O)N[C@@H](Cc2c[nH]c3ccccc23)C(=O)N[C@@H](Cc2ccc(O)cc2)C(=O)N[C@@H](CCO)C(=O)N[C@H](C(=O)NCC(N)=O)CSCC(=O)N[C@@H](Cc2cc(F)c(F)c(F)c2)C(=O)N(C)[C@@H](Cc2ccccc2)C(=O)N1C [Example 10095] ({CH2CO}-[Phe(3,4,5-F3)][NMeF][NMeNle][dP]DV[NMeF]Y[dP]WY[hSer]CG-NH2; thioether N-13)
7 | 1 to 9.9 nM | CCCC[C@H]1C(=O)N(C)[C@@H](CCCC)C(=O)N[C@@H](CCCNC(=N)N)C(=O)N[C@H](C(=O)NCC(N)=O)CSCC(=O)N[C@@H](Cc2ccc(C)cc2)C(=O)N(C)[C@@H](C)C(=O)N[C@@H](CC(N)=O)C(=O)N2CCC[C@H]2C(=O)N[C@@H](CN)C(=O)N[C@@H](CC(C)C)C(=O)N2C[C@H](O)C[C@H]2C(=O)N[C@@H](Cc2c[nH]c3ccccc23)C(=O)N[C@@H](CO)C(=O)N[C@@H](Cc2c[nH]c3ccccc23)C(=O)N1C [Example 7070] ({CH2CO}-[Phe(4-Me)][NMeA]NP[Dap]L[Hyp]WSW[NMeNle][NMeNle]RCG-NH2; thioether N-14)
8 | 1 to 9.9 nM | CCCC[C@H]1C(=O)N2C[C@H](O)C[C@@H]2C(=O)N[C@@H](CC(=O)O)C(=O)N[C@@H](C(C)C)C(=O)N(C)[C@@H](Cc2ccccc2)C(=O)N[C@@H](CC(N)=O)C(=O)N2C[C@H](O)C[C@@H]2C(=O)N[C@@H](Cc2c[nH]c3ccccc23)C(=O)N[C@@H](Cc2ccc(O)cc2)C(=O)N[C@@H](CC(C)C)C(=O)N[C@H](C(=O)NCC(N)=O)CSCC(=O)N[C@@H](Cc2cc(F)c(F)c(F)c2)C(=O)N(C)[C@@H](Cc2ccccc2)C(=O)N1C [Example 9361] ({CH2CO}-[Phe(3,4,5-F3)][NMeF][NMeNle][d(cisHyp)]DV[NMeF]N[d(cisHyp)]WYLCG-NH2; thioether N-13)
9 | 10 to 99.9 nM | CCCC[C@H]1C(=O)N2CCC[C@@H]2C(=O)N[C@@H](CC(=O)O)C(=O)N[C@@H](C(C)C)C(=O)N[C@@](C)(Cc2ccccc2)C(=O)N[C@@H](Cc2ccc(O)cc2)C(=O)N2CCCC[C@@H]2C(=O)N[C@@H](Cc2c[nH]c3ccccc23)C(=O)N[C@@H](Cc2ccc(O)cc2)C(=O)N[C@@H](CC(C)C)C(=O)N[C@H](C(=O)NCC(N)=O)CSCC(=O)N[C@@H](Cc2ccccc2)C(=O)N(C)[C@@H](Cc2ccccc2)C(=O)N1C [Example 3220] ({CH2CO}-F[NMeF][NMeNle][dP]DV[αMeF]Y[dPip]WYLCG-NH2; thioether N-13)
10 | 10 to 99.9 nM | CCCC[C@H]1C(=O)N(C)[C@@H](CCCC)C(=O)N[C@@H](CCCNC(=N)N)C(=O)NC(C(=O)NCC(N)=O)CSCC(=O)N[C@@H](Cc2ccc(O)cc2)C(=O)N(C)[C@@H](C)C(=O)N[C@@H](CC(N)=O)C(=O)N2CCC[C@H]2C(=O)N[C@@H](CCO)C(=O)N[C@@H](CCO)C(=O)N2CCC[C@H]2C(=O)N[C@@H](Cc2c[nH]c3ccccc23)C(=O)N[C@@H](CO)C(=O)N[C@@H](Cc2csc3ccccc23)C(=O)N1C (stereo partly drawn) [Example 10019] ({CH2CO}-Y[NMeA]NP[hSer][hSer]PWS[Bta][NMeNle][NMeNle]R[ξC]G-NH2; thioether N-14)
11 | 1 to 9.9 nM | CCCC[C@H]1C(=O)N(C)[C@@H](CCCC)C(=O)N[C@@H](CO)C(=O)N[C@H](C(=O)NCC(N)=O)CSCC(=O)N[C@@H](Cc2ccc(OC)cc2)C(=O)N(C)[C@@H](C)C(=O)N[C@@H](CC(N)=O)C(=O)N2CCC[C@H]2C(=O)N[C@@H](Cc2c[nH]cn2)C(=O)N[C@@H](CCC(N)=O)C(=O)N2C[C@H](O)C[C@H]2C(=O)N[C@@H](Cc2c[nH]c3ccccc23)C(=O)N[C@@H](CO)C(=O)N[C@@H](Cc2c[nH]c3ccccc23)C(=O)N1C [Example 7137] ({CH2CO}-Y(Me)[NMeA]NPHQ[Hyp]WSW[NMeNle][NMeNle]SCG-NH2; thioether N-14)
12 | 10 to 99.9 nM | CCCC[C@H]1C(=O)N2CSC[C@@H]2C(=O)N[C@@H](CO)C(=O)N[C@@H](C(C)C)C(=O)N(C)[C@@H](Cc2ccccc2)C(=O)N[C@@H](Cc2ccc(O)cc2)C(=O)N2CCC[C@@H]2C(=O)N[C@@H](Cc2c[nH]c3ccccc23)C(=O)N[C@@H](Cc2ccc(O)cc2)C(=O)N[C@@H](CC(C)C)C(=O)N[C@H](C(=O)NCC(N)=O)CSCC(=O)N[C@@H](Cc2ccccc2)C(=O)N(C)[C@@H](Cc2ccccc2)C(=O)N1C [Example 10074] ({CH2CO}-F[NMeF][NMeNle][dThz]SV[NMeF]Y[dP]WYLCG-NH2; thioether N-13)
13 | 1 to 9.9 nM | CCCC[C@H]1C(=O)N(C)[C@@H](CCCC)C(=O)N[C@@H](CC(C)C)C(=O)N[C@H](C(=O)NCC(N)=O)CSCC(=O)N[C@@H](Cc2ccc(O)cc2)C(=O)N(C)[C@@H](C)C(=O)N[C@@H](CC(N)=O)C(=O)N2CCC[C@H]2C(=O)N[C@@H](CO)C(=O)N[C@@H](CCC(N)=O)C(=O)N2C[C@H](O)C[C@H]2C(=O)N[C@@H](Cc2c[nH]c3ccccc23)C(=O)N[C@@H](CO)C(=O)N[C@@H](Cc2cn(CC(=O)O)c3ccccc23)C(=O)N1C [Example 6216] ({CH2CO}-Y[NMeA]NPSQ[Hyp]WS[Trp(1-CH2COOH)][NMeNle][NMeNle]LCG-NH2; thioether N-14)
14 | 1 to 9.9 nM | CCCC[C@H]1C(=O)N2CCC[C@@H]2C(=O)N[C@@H](CC(=O)O)C(=O)N[C@@H](C(C)C)C(=O)N(C)[C@@H](Cc2ccccc2)C(=O)N[C@@H](CCC(=O)O)C(=O)N2CCC[C@@H]2C(=O)N[C@@H](Cc2c[nH]c3ccccc23)C(=O)N[C@@H](Cc2ccc(O)cc2)C(=O)N[C@@H](CC(C)C)C(=O)N[C@H](C(=O)NCC(N)=O)CSCC(=O)N[C@@H](Cc2ccc(F)cc2)C(=O)N(C)[C@@H](Cc2ccccc2)C(=O)N1C [Example 10107] ({CH2CO}-[Phe(4-F)][NMeF][NMeNle][dP]DV[NMeF]E[dP]WYLCG-NH2; thioether N-13)
15 | 1 to 9.9 nM | CCCC[C@H]1C(=O)N(C)[C@@H](CCCC)C(=O)N[C@@H](CC(=O)O)C(=O)N[C@H](C(N)=O)CSCC(=O)N[C@@H](Cc2ccc(O)cc2)C(=O)N(C)[C@@H](C)C(=O)N[C@@H](CC(N)=O)C(=O)N2CCC[C@H]2C(=O)N[C@@H](CN)C(=O)N[C@@H](CC(C)C)C(=O)N2C[C@H](O)C[C@H]2C(=O)N[C@@H](Cc2c[nH]c3ccccc23)C(=O)N[C@@H](CO)C(=O)N[C@@H](Cc2cn(CC(=O)O)c3ccccc23)C(=O)N1C [Example 6334] ({CH2CO}-Y[NMeA]NP[Dap]L[Hyp]WS[Trp(1-CH2COOH)][NMeNle][NMeNle]DC-NH2; thioether N-14)
